Laboratory results as given in patent US20140105871A1, “Use Of Mesenchymal Stem Cells For The Improvement Of Affective And Cognitive Function” (priority 2011, published 2014).

How the values were obtained:
[1] = test system: cell suspension of rat neonatal brain tissue; experiment: Neurosphere growth in conditioned medium of pre-treated MSC cultures (neurogenic potential in vitro); type: cell-based
Experimental: 70-80% confluent cultures of bone marrow derived MSCs were cultured in vitro in Dulbecco's modified Eagle's medium (DMEM) without Fetal Bovine Serum (FBS) with and supplemented with the addition of one of the following compounds: None, LiCl (2 mM), PACAP27 (20 nM) or DHEA (1 mM). After 3 days medium was changed with fresh ingredients and cultures were allowed to grow for an additional 24 hours. After 24 hours plates were washed twice with PBS and conditioning medium (C.M.) containing none of the above compounds was placed for additional 24 hours. Conditioned medium harvested from these cultures after 24 hours was filtered in 0.2 um filter supplemented with 1% B27 nutrients mix and used as culture medium for a cell suspension of rat neonatal brain tissue in 24 well plates (10^4 cells/well). […]
The number of developing neurospheres in each conditioned medium type was counted after 5 days of culture and provided an indication of the neurogenic potential of the MSCs culture from which the CM was harvested. […]
The number of developing neurospheres in each conditioned medium type was counted and provided an indication of the neurogenic potential of the MSCs culture from which the C.M. was harvested.

[2] = test system: murine model of schizophrenia (ketamine-injected female ICR pups); experiment: Pre-pulse inhibition (PPI) in ketamine-injected pups, murine model of schizophrenia; type: in vivo, mouse; conditions: Example 6, intraperitoneal 12 days course
Experimental: Prepulse inhibition (PPI) test was conducted in startle device (Hamilton Kinder, Poway, Calif.) that consists of a plexiglas cylinder (10×10×5 cm) adapted for mouse size in order to restrict a mouse to stand up on its hind legs and enclosed in a ventilated sound attenuated compartment with a high-frequency loudspeaker producing all acoustic stimuli. The background noise was 65 dB. Movements within the cylinder were detected and transduced by a piezoelectric platform and recorded on a computer. Each trial was initiated with 5 minutes acclimation period followed by five startle pulse alone (ASR) successive testing trials and finishing with final five startle pulses alone. Auditory testing included startle pulse alone (ASR, 120 dB/40 msec) plus three different prepulse sessions in which either 20-msec-long 70, 74 and 82 dB stimuli were preceded the 120 dB pulse by 100 msec, with the alternate background noise measurement set as the baseline movements in the cylinder. All trials followed in a pseudo-random order and the average inter-trial interval (ITI) was […]. PPI was defined as the percentage of the decreased in the ratio between the startle magnitude in the presence of the prepulse and the magnitude in the absence of the prepulse (100−(100× magnitude on prepulse+pulse trial/magnitude on pulse trial)). […]

Compound: HSDGIFTDSYSRYRKQMAVKKYLAAVL [PACAP (P27), fragment of 27 amino acid residues corresponding to amino acids 132-158 of human PACAP]
- number of developing neurospheres ([1]; C.M. of MSC cultures treated with the agent (PACAP27 20 nM, DHEA 1 mM) vs non-treated cultures (C.M. alone), FIG. 2): clear advantage

Compound: [Cl-].[Li+] [LiCl, lithium chloride]
- neurogenic activity of the MSCs, in vitro ([1]; incubation of MSCs in culture with the agent): enhanced the neurogenic activity

Compound: CN1CCN(C2=Nc3cc(Cl)ccc3Nc3ccccc32)CC1 [Clozapine, clozapine]
- PPI vs Ket control ([2]; 2.5 months after the treatment course ended, FIG. 17): no significant effect
- PPI vs Ket control ([2]; 6 weeks after the course ended, FIG. 16): no significant effect
